These results are taken from ChEMBL document CHEMBL2203135, “Novel progesterone receptor modulators: 4-aryl-phenylsulfonamides” (Bioorg Med Chem Lett, 2012).

Activity calls are given as the source filed them. No cut-off for these calls is given here.

As usually defined, the AUC(0-t) is exposure summed from dosing to a finite time, without extrapolation to infinity. What is called Cmax is the peak of the concentration-time curve. The bioavailability is dose-corrected exposure relative to a reference, in per cent. One may read the AUC(0-inf) as total exposure, with the tail of the curve extrapolated. As usually defined, the half-life is how long it takes for the measured level to halve. The term IC50 denotes the concentration needed to halve the response being measured.

The nature of data set [1]: AUC (0 to last) in in ovariectomized rhesus monkey at 5 mg/kg/day, po. The conditions noted are these: female, plasma. Set-up: dose 5 mg/kg/day, time 0 - last, route oral. The format is ADME, organism-based, Macaca mulatta.
The nature of data set [2]: Cmax in in ovariectomized rhesus monkey at 5 mg/kg/day, po. The note with it: female, in vivo. On the set-up: dose 5 mg/kg/day, route oral. The format is ADME, organism-based, Macaca mulatta.
Another data set has as its system Rhesus monkey. The data set can be described thus: Induction of early menstruation in ovariectomized rhesus monkey menses induction model at 5 mg/kg/day, po. In kind it is functional, organism-based. The note with it: Macaca mulatta.
Data set [3] in a line: Oral bioavailability in rat at 2 mg/kg. In kind it is ADME, organism-based. The note with it: in vivo.
Data set [4] can be described thus: AUC (0 to infinity) in rat at 2 mg/kg, po. In kind it is ADME, organism-based. Set-up: time infinity, dose 2 mg/kg, route oral. The conditions noted are these: plasma.
Data set [5] can be described thus: Half life in rat at 2 mg/kg, po. The conditions noted are these: in vivo. The format is ADME, organism-based. Set-up: dose 2 mg/kg, route oral.
Data set [6] in a line: AUC (0 to infinity) in rat at 2 mg/kg, iv. The format is ADME, organism-based. Set-up: time infinity, dose 2 mg/kg, route intravenous. The conditions noted are these: plasma.
The nature of data set [7]: Oral bioavailability in cynomolgus monkey at 2 mg/kg. In kind it is ADME, organism-based, Macaca fascicularis. The conditions noted are these: in vivo.
The nature of data set [8]: AUC (0 to infinity) in cynomolgus monkey at 2 mg/kg, iv. The format is ADME, organism-based, Macaca fascicularis. On the set-up: time infinity, dose 2 mg/kg, route intravenous. The note with it: plasma.
Data set [9] can be described thus: Volume of distribution at steady state in cynomolgus monkey at 2 mg/kg, iv. The format is ADME, organism-based, Macaca fascicularis. The conditions noted are these: in vivo, read-out: Vdss. Set-up: dose 2 mg/kg, route intravenous.
The target in data set [10] is T1, Mineralocorticoid receptor (Homo sapiens) (UniProt P08235).
T1 sequence (whole entry): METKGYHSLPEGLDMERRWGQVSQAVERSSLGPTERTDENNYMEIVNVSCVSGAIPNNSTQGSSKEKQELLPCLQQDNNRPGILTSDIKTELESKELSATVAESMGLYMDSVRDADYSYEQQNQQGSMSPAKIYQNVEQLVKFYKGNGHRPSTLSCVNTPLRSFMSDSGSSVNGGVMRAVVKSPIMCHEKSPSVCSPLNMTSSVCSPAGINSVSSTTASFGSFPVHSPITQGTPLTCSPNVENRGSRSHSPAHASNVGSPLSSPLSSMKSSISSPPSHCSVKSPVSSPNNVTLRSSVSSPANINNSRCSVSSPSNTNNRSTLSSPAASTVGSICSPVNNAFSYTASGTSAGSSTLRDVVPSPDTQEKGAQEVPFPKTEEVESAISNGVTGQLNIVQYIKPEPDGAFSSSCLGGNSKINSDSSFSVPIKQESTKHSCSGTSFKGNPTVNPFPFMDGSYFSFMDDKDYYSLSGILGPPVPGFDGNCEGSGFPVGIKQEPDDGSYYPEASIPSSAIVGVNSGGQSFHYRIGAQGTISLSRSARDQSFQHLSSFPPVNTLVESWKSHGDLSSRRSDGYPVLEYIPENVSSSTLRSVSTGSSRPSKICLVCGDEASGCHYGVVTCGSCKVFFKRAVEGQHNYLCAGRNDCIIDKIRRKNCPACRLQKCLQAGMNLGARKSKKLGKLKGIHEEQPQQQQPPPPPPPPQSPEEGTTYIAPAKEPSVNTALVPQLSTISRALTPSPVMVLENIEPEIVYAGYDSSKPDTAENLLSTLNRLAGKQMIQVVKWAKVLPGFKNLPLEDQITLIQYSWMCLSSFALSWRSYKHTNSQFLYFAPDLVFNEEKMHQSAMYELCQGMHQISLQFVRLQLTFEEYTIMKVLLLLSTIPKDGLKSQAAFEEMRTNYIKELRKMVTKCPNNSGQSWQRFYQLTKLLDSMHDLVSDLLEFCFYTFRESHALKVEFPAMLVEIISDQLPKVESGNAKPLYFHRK
The data set can be described thus: Antagonist activity at mineralocorticoid receptor at 1 uM by cellular reporter gene assay. The format is functional. Set-up: scale not given: the % may be the effect or the level left.

A further data set addresses T2, Progesterone receptor (Homo sapiens, UniProt P06401).
T2 sequence (P06401 whole entry): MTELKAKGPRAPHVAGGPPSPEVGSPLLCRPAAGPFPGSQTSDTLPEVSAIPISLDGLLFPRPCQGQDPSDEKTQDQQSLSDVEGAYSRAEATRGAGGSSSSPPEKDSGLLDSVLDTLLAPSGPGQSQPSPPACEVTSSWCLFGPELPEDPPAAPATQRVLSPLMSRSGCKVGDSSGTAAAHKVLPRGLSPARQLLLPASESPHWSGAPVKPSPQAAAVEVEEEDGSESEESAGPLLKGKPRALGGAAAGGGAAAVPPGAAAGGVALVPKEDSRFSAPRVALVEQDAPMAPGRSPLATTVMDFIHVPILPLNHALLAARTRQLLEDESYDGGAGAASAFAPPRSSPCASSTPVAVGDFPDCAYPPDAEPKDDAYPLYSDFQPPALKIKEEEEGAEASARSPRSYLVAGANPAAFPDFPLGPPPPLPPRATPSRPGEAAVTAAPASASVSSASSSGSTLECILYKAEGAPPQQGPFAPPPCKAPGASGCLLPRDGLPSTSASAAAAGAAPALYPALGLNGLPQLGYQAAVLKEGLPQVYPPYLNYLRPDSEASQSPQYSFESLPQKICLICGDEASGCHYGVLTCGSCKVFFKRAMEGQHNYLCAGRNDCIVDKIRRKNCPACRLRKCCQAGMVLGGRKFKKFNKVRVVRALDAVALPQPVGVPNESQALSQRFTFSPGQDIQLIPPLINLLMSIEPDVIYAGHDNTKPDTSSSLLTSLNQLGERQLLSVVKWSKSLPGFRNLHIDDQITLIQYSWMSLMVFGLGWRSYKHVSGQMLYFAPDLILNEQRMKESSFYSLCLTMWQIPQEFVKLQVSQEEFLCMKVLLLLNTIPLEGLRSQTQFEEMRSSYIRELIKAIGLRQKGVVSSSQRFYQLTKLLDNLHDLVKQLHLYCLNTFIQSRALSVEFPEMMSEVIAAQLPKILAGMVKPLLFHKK
Kind of data set: Antagonist activity at progesterone receptor by cellular reporter gene assay. The format is functional. A general note: Reporter assays use an easily measured gene product as a stand-in for the process of interest.

In data set [11] the target is T3, Estrogen receptor (Homo sapiens) (UniProt P03372).
T3 sequence (whole entry): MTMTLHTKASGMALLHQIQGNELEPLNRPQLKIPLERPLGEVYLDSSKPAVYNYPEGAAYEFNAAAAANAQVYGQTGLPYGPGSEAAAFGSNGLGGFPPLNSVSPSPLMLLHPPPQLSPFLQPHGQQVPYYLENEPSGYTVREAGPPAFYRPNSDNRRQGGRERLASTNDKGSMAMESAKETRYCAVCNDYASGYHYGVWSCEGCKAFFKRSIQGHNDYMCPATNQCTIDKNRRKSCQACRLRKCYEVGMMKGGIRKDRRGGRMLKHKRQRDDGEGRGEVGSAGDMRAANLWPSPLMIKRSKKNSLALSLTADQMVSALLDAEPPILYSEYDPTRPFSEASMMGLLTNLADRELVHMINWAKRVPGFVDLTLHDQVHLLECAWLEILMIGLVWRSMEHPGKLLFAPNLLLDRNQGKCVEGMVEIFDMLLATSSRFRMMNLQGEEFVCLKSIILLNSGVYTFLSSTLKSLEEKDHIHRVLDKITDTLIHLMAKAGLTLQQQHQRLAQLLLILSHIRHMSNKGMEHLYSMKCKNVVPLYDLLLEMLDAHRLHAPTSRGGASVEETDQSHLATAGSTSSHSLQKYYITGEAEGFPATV
Kind of data set: Agonist activity at estrogen receptor by cellular reporter gene assay. In kind it is functional.

Data set [12] concerns Salmonella typhimurium. Kind of data set: Mutagenicity in Salmonella typhimurium in presence of liver S9 fraction by non-GLP Ames test. The format is toxicity, organism-based. The note with it: salmonella enterica subsp. enterica serovar typhimurium. (In the Ames test, an excess of revertant colonies over the control signals mutagenicity.)
The subject of data set [13] is Salmonella typhimurium. The data set can be described thus: Mutagenicity in Salmonella typhimurium in absence of liver S9 fraction by non-GLP Ames test. The note with it: salmonella enterica subsp. enterica serovar typhimurium. The format is toxicity, organism-based.

Turning to `CCS(=O)(=O)Nc1cc(F)c(-c2ccc(C#N)n2C)c(F)c1`, in [1], the AUC(0-t) was 28.5 µg·h/mL. In addition, the Cmax in [2] came out at 8.8 µM. Further, in the data set on Rhesus monkey, the result was Active. The bioavailability worked out at 98.5% in [3] and 69% in [7]. Further, the AUC(0-inf) in data set [4] was 15.2 µg·h/mL; in [6], 13 µg·h/mL; in data set [8] it was 18 µg·h/mL. Also, the half-life in [5] was 2.3 h. In addition, in [9], the Vd was 0.3 L/kg. In addition, the Activity in [10] was 60%; in the data set with Salmonella typhimurium [12], “Non-toxic”; in the data set on Salmonella typhimurium [13], “Non-toxic”. Besides, the IC50 at Progesterone receptor turned out to be 11.7 nM. Further, the outcome in data set [11] was inactive.

The molecule `COC[C@]1(OC)CC[C@H]2[C@@H]3CCC4=CC(=O)CCC4=C3[C@@H](c3ccc(/C=N/O)cc3)C[C@@]21C` [ASOPRISNIL] gave an IC50 against Progesterone receptor of 0.3 nM. In addition, in data set [11], the result was inactive.
